Test results taken from ChEMBL document CHEMBL1944527, “Structure-based library design and the discovery of a potent and selective mast cell β-tryptase inhibitor as an oral therapeutic agent” (Bioorg Med Chem Lett, 2012).

What was measured:
[1] = Inhibition of human recombinant beta tryptase using S-2366 as substrate after 30 mins by spectrophotometry
[2] = Volume of distribution at steady state in rat at 2 mg/kg, iv and 10 mg/kg, po; conditions: in vivo, read-out: Vdss
[3] = biological target: Coagulation factor X (Homo sapiens, UniProt P00742); assay: Inhibition of Coagulation factor 10a
Coagulation factor X, sequence (P00742 41-179 limits assumed): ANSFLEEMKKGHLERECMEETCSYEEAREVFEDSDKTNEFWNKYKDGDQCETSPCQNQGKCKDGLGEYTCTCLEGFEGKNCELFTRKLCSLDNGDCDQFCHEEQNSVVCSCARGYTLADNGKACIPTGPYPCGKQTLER
Coagulation factor X, sequence (P00742 235-488 limits assumed): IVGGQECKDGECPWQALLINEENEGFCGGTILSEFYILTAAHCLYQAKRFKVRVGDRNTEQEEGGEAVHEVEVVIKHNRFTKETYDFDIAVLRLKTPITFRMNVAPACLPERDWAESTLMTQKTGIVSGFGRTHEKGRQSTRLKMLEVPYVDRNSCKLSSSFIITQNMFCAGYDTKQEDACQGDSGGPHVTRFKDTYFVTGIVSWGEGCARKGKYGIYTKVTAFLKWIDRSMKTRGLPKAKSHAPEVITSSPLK

[4] = Oral bioavailability in rat at 10 mg/kg; format: ADME, organism-based; conditions: in vivo
[5] = biological target: T1, Chymase (Homo sapiens, UniProt P23946); assay: Inhibition of chymase
T1 sequence (P23946 whole entry): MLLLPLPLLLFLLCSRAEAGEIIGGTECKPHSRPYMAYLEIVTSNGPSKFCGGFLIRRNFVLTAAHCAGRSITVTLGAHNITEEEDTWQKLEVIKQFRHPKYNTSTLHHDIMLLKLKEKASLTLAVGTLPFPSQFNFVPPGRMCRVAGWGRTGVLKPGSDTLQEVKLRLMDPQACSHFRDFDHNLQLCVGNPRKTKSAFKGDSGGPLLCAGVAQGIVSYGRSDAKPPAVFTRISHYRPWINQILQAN

[6] = Cmax in rat at 10 mg/kg, po; format: ADME, organism-based; parameters: dose 10 mg/kg, route oral; conditions: in vivo
[7] = Plasma clearance in rat at 2 mg/kg, iv and 10 mg/kg, po
[8] = Half life in rat plasma at 2 mg/kg, iv
[9] = biological target: Prothrombin (Homo sapiens, UniProt P00734); assay: Inhibition of thrombin
[10] = Inhibition of elastase
[11] = Inhibition of trypsin
[12] = Tmax in rat at 10 mg/kg, po; format: ADME, organism-based; parameters: dose 10 mg/kg, route oral; conditions: in vivo

In the case of `NCc1cccc(C2CCN(C(=O)c3ccc(C#Cc4ccc(Cl)cc4)o3)CC2)c1`, the Ki [1] is reported as 166 nM.
With `NCc1cccc(C2CCN(C(=O)c3ccc(C#Cc4ccccc4)o3)CC2)c1.O=C(O)C(F)(F)F` the Vd [2] was 14.1 L/kg, the IC50 [3] was > 100000 nM and the bioavailability [4] was 32%. The IC50 [5] was > 100000 nM, the Cmax [6] was 68 ng/mL and the clearance [7] was 85 mL/min/kg. For the same molecule, the half-life [8] was 2.5 h, the IC50 [9] was > 100000 nM and the IC50 [10] was > 100000 nM. For the same molecule, the Ki [1] was 31 nM, the IC50 [11] was > 100000 nM and the Tmax [12] was 3.3 h.
In the case of `NCc1cccc(C2CCN(C(=O)c3ccc(C#Cc4ccccc4F)o3)CC2)c1.O=C(O)C(F)(F)F`, the Vd [2] is reported as 18.5 L/kg, the IC50 [3] is reported as > 100000 nM and the bioavailability [4] is reported as 77%. The IC50 [5] was > 100000 nM, the Cmax [6] was 121 ng/mL and the clearance [7] was 140 mL/min/kg. For the same molecule, the half-life [8] was 2.2 h, the IC50 [9] was > 100000 nM and the IC50 [10] was > 100000 nM. For the same molecule, the IC50 [11] was > 100000 nM and the Tmax [12] was 3.7 h.
With `Cc1ccc(C#Cc2ccc(C(=O)N3CCC(c4cccc(CN)c4)CC3)o2)cc1` the Ki [1] was 112 nM.
For `Cc1ccccc1C#Cc1ccc(C(=O)N2CCC(c3cccc(CN)c3)CC2)o1`, the Ki [1] was 324 nM.
`NCc1cccc(C2CCN(C(=O)c3ccc(C#Cc4ccc(F)c(F)c4)o3)CC2)c1` showed a Ki [1] of 742 nM.
With `NCc1cccc(C2CCN(C(=O)c3ccc(C#Cc4ccc(F)cc4F)o3)CC2)c1` the Ki [1] was 67 nM.
`NCc1cccc(C2CCN(C(=O)c3ccc(C#Cc4ccc(F)cc4)o3)CC2)c1` showed a Ki [1] of 279 nM.
`NCc1cccc(C2CCN(C(=O)c3ccc(C#Cc4cccc(F)c4)o3)CC2)c1` showed a Ki [1] of 98 nM.
Work on `NCc1cccc(C2CCN(C(=O)c3ccc(C#Cc4ccccc4Cl)o3)CC2)c1` yielded a Ki [1] of 22 nM.
`NCc1cccc(C2CCN(C(=O)c3ccc(C#Cc4ccc(Cl)nc4)o3)CC2)c1` gave a Ki [1] of 101 nM.
With `NCc1cccc(C2CCN(C(=O)c3ccc(C#Cc4cccs4)o3)CC2)c1` the Ki [1] was 236 nM.
`NCc1cccc(C2CCN(C(=O)c3ccc(C#Cc4ccsc4)o3)CC2)c1` showed a Ki [1] of 327 nM.
Work on `NCc1cccc(C2CCN(C(=O)c3ccc(C#Cc4cccnc4)o3)CC2)c1` yielded a Ki [1] of 84 nM.
In the case of `NCc1cccc(C2CCN(C(=O)c3ccc(C#Cc4ccccn4)o3)CC2)c1.O=C(O)C(F)(F)F`, the IC50 [3] is reported as 9000 nM, the bioavailability [4] is reported as 0% and the IC50 [5] is reported as > 100000 nM. The clearance [7] was 310 mL/min/kg, the half-life [8] was 0.46 h and the IC50 [9] was > 100000 nM. The IC50 [10] was > 100000 nM, the Ki [1] was 5 nM and the IC50 [11] was > 100000 nM.
`NCc1cccc(C2CCN(C(=O)c3ccc(C#Cc4ncccc4F)o3)CC2)c1` showed a Ki [1] of 27 nM.
In the case of `NCc1cccc(C2CCN(C(=O)c3ccc(C#Cc4cnccn4)o3)CC2)c1`, the Ki [1] is reported as 2770 nM.
For `NCc1cccc(C2CCN(C(=O)c3ccc(C#Cc4ncccn4)o3)CC2)c1`, the Ki [1] was 157 nM.
